Target: T1, glucocerebrosidase (Gcase) (Homo sapiens, UniProt P04062)
T1 construct: micellar solution containing 10 nM GCase and 100 nM saposin C
T1 sequence (P04062 40-536): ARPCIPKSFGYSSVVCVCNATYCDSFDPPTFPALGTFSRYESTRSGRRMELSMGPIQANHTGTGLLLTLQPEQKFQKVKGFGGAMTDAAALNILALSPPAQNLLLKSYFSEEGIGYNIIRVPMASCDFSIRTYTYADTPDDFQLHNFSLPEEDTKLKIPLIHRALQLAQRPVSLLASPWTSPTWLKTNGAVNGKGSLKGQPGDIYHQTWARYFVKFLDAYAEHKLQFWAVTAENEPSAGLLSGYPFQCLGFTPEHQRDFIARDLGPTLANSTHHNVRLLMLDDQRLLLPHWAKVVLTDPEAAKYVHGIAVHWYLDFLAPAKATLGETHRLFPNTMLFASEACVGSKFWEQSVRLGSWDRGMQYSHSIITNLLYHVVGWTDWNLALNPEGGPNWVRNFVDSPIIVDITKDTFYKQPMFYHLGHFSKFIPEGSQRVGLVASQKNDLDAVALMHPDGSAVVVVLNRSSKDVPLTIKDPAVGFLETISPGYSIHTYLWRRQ
Assay: Glucocerebrosidase (Gcase) activation assay with 4-methylumbelliferyl-beta-D-glucopyranoside substrate, saposin C and phosphatidylserine/triton micelles, fluorescence readout
Assay type: biochemical
Method in brief: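 Readout is endpoint fluorescence (ex 365, em 440 nm) after glycine pH 12.5 stop of a 15-min room-temperature reaction. Enzyme mix: GCase 10 nM plus saposin C 100 nM in 0.37 mol % PS/0.32 mM triton micelles, pH 4.7, compound pre-incubated 30 min; substrate solution 2 mM before 1:1 mixing. Tested at 1.0/0.1 μM, then 3-fold, 8-point series up to 5 μM.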

| Structure (SMILES) | Percent Gcase Activation, 0.1 μM Test Compound (test compound at 0.1 μM) | Percent Gcase Activation, 1 μM Test Compound (test compound at 1.0 μM) | also measured |
| --- | --- | --- | --- |
| Cc1cc(N2CCN(C(C)C)C2=O)nc2c(C(=O)NC(C)(C)C)cnn12 [III-232] | * (less than 10% Gcase activation) | + (less than 30% Gcase activation) |  |
| Cc1cc(-c2cc(F)c3ocnc3c2)nc2c(C(=O)N[C@H](C)C(F)(F)F)cnn12 [III-296] |  |  | Percent Gcase Activation, 0.1 μM Test Compound (0.1 μM test compound): *** (greater than 20% Gcase activation); Percent Gcase Activation, 1 μM Test Compound (1 μM test compound): +++ (Gcase activation greater than 60%) |
| Cc1cc(N2CCC(F)(F)CC2)nc2c(C(=O)NC(C)C3CC3)cnn12 (centres unmarked) [III-60] |  |  | Percent Gcase Activation, 0.1 μM Test Compound (0.1 μM test compound, Table 3A): * (less than 10% Gcase activation); Percent Gcase Activation, 1 μM Test Compound (1 μM test compound, Table 3A): ++ (Gcase activation in the range of 30% up to 60%) |
| COCc1cc(-c2ccc(F)cc2)nc2c(C(=O)NC(C)(C)C3CC3)cnn12 [III-47] |  |  | Percent Gcase Activation, 0.1 μM Test Compound (0.1 μM test compound, Table 3A): ** (Gcase activation in the range of 10% up to 20%); Percent Gcase Activation, 1 μM Test Compound (1 μM test compound, Table 3A): +++ (Gcase activation greater than 60%) |
| Cc1cc(-c2ccc(F)cc2C#N)nc2c(C(=O)N[C@@H](C)C(F)(F)F)cnn12 [III-156] | *** (greater than 20% Gcase activation) | +++ (Gcase activation greater than 60%) |  |
| Cc1cc(-c2cccc(Cl)c2)nc2c(C(=O)N[C@@H](C)C3CC3)cnn12 [III-65] |  |  | Percent Gcase Activation, 0.1 μM Test Compound (0.1 μM test compound, Table 3A): *** (greater than 20% Gcase activation); Percent Gcase Activation, 1 μM Test Compound (1 μM test compound, Table 3A): +++ (Gcase activation greater than 60%) |
| CCc1cc(-c2ccccn2)nc2c(C(=O)NC(C)(C)C(F)(F)F)cnn12 [III-407] |  |  | Percent Gcase Activation, 0.1 μM Test Compound (0.1 μM test compound): * (less than 10% Gcase activation); Percent Gcase Activation, 1 μM Test Compound (1 μM test compound): + (less than 30% Gcase activation) |
| Cc1cc(N2CCCN(CC(F)(F)F)C2=O)nc2c(C(=O)NC(C3CC3)C(F)(F)F)cnn12 (centres unmarked) [III-260] | * (less than 10% Gcase activation) | ++ (Gcase activation in the range of 30% up to 60%) |  |
| Cc1cc(-c2cccc(C#N)c2)nc2c(C(=O)NC(C)(C)C3CC3)cnn12 [III-71] |  |  | Percent Gcase Activation, 0.1 μM Test Compound (0.1 μM test compound, Table 3A): *** (greater than 20% Gcase activation); Percent Gcase Activation, 1 μM Test Compound (1 μM test compound, Table 3A): +++ (Gcase activation greater than 60%) |
| COc1cncc(-c2cc(C)n3ncc(C(=O)N[C@H](C4CC4)C(F)(F)F)c3n2)c1 [III-266] | *** (greater than 20% Gcase activation) | +++ (Gcase activation greater than 60%) |  |
| Cc1nscc1-c1cc(C)n2ncc(C(=O)N[C@H](C3CC3)C(F)(F)F)c2n1 [III-389] |  |  | Percent Gcase Activation, 0.1 μM Test Compound (0.1 μM test compound): *** (greater than 20% Gcase activation); Percent Gcase Activation, 1 μM Test Compound (1 μM test compound): +++ (Gcase activation greater than 60%) |
| Cc1cc(-c2ccc(Cl)nc2)nc2c(C(=O)NC(C3CC3)C(F)(F)F)cnn12 (centres unmarked) [III-116] | *** (greater than 20% Gcase activation) | +++ (Gcase activation greater than 60%) |  |
| C#CC(C)(C)NC(=O)c1cnn2c(C)cc(-c3cccc(Cl)n3)nc12 [III-63] |  |  | Percent Gcase Activation, 0.1 μM Test Compound (0.1 μM test compound, Table 3A): ** (Gcase activation in the range of 10% up to 20%); Percent Gcase Activation, 1 μM Test Compound (1 μM test compound, Table 3A): ++ (Gcase activation in the range of 30% up to 60%) |
| Cc1cc(-c2ccc3scnc3c2)nc2c(C(=O)N[C@@H](C)C3CC3)cnn12 [III-192] | *** (greater than 20% Gcase activation) | +++ (Gcase activation greater than 60%) |  |
| Cc1cc(-c2ccncc2)n2ncc(C(=O)N[C@@H](C)C3CC3)c2n1 [III-29] |  |  | Percent Gcase Activation, 0.1 μM Test Compound (0.1 μM test compound, Table 3A): * (less than 10% Gcase activation); Percent Gcase Activation, 1 μM Test Compound (1 μM test compound, Table 3A): + (less than 30% Gcase activation) |
| Cc1cc(-n2ccc(F)n2)nc2c(C(=O)NC(C3CC3)C(F)(F)F)cnn12 (centres unmarked) [III-172] | *** (greater than 20% Gcase activation) | +++ (Gcase activation greater than 60%) |  |
| Cc1cc(-c2ccns2)nc2c(C(=O)N[C@@H](C)C3CC3)cnn12 [III-197] | *** (greater than 20% Gcase activation) | +++ (Gcase activation greater than 60%) |  |
| Cc1cc(-c2ccc(C#N)nc2)nc2c(C(=O)N[C@H](C3CC3)C(F)(F)F)cnn12 [III-367] |  |  | Percent Gcase Activation, 0.1 μM Test Compound (0.1 μM test compound): ** (Gcase activation in the range of 10% up to 20%); Percent Gcase Activation, 1 μM Test Compound (1 μM test compound): +++ (Gcase activation greater than 60%) |
| COc1ccc(F)cc1-c1cc(C)n2ncc(C(=O)N[C@H](C)C(F)(F)F)c2n1 [III-195] | *** (greater than 20% Gcase activation) | +++ (Gcase activation greater than 60%) |  |

| Structure (SMILES) | Percent Gcase Activation, 0.1 μM Test Compound (test compound at 0.1 μM) | Percent Gcase Activation, 1 μM Test Compound (test compound at 1.0 μM) | also measured |
| --- | --- | --- | --- |
| Cc1cc(-c2noc(C(C)C)n2)nc2c(C(=O)N[C@@H](C)C3CC3)cnn12 [III-402] |  |  | Percent Gcase Activation, 0.1 μM Test Compound (0.1 μM test compound): *** (greater than 20% Gcase activation); Percent Gcase Activation, 1 μM Test Compound (1 μM test compound): +++ (Gcase activation greater than 60%) |
| COc1cncc(-c2cc(C)n3ncc(C(=O)N[C@@H](C4CC4)C(F)(F)F)c3n2)c1 [III-267] | *** (greater than 20% Gcase activation) | +++ (Gcase activation greater than 60%) |  |
| Cc1cc(-c2ccc3ncn(C)c3c2)nc2c(C(=O)N[C@H](C3CC3)C(F)(F)F)cnn12 [III-305] |  |  | Percent Gcase Activation, 0.1 μM Test Compound (0.1 μM test compound): *** (greater than 20% Gcase activation); Percent Gcase Activation, 1 μM Test Compound (1 μM test compound): +++ (Gcase activation greater than 60%) |
| Cc1cncc(-c2cc(C)n3ncc(C(=O)N[C@@H](C4CC4)C(F)(F)F)c3n2)c1 [III-277] | *** (greater than 20% Gcase activation) | +++ (Gcase activation greater than 60%) |  |
| Cc1ccncc1-c1cc(C)n2ncc(C(=O)NC(C)C(F)(F)F)c2n1 (centres unmarked) [III-281] | * (less than 10% Gcase activation) | + (less than 30% Gcase activation) |  |
| Cc1cc(-c2cncc(C#N)c2)nc2c(C(=O)N[C@@H](C3CC3)C(F)(F)F)cnn12 [III-364] |  |  | Percent Gcase Activation, 0.1 μM Test Compound (0.1 μM test compound): ** (Gcase activation in the range of 10% up to 20%); Percent Gcase Activation, 1 μM Test Compound (1 μM test compound): +++ (Gcase activation greater than 60%) |
| Cc1cc(-c2cnccc2C(F)(F)F)nc2c(C(=O)N[C@@H](C3CC3)C(F)(F)F)cnn12 [III-354] |  |  | Percent Gcase Activation, 0.1 μM Test Compound (0.1 μM test compound): *** (greater than 20% Gcase activation); Percent Gcase Activation, 1 μM Test Compound (1 μM test compound): +++ (Gcase activation greater than 60%) |
| Cc1cc(-c2ccccn2)nc2c(C(=O)NC(C3CC3)C(F)(F)F)cnn12 (centres unmarked) [III-36] |  |  | Percent Gcase Activation, 0.1 μM Test Compound (0.1 μM test compound, Table 3A): *** (greater than 20% Gcase activation); Percent Gcase Activation, 1 μM Test Compound (1 μM test compound, Table 3A): +++ (Gcase activation greater than 60%) |
| Cc1cc(N2CCC(F)(F)C2)nc2c(C(=O)NC(C)C(F)(F)F)cnn12 (centres unmarked) [III-180] | ** (Gcase activation in the range of 10% up to 20%) | +++ (Gcase activation greater than 60%) |  |
| Cc1cc(-c2nnc(C(C)C)o2)nc2c(C(=O)N[C@H](C3CC3)C(F)(F)F)cnn12 [III-391] |  |  | Percent Gcase Activation, 0.1 μM Test Compound (0.1 μM test compound): ** (Gcase activation in the range of 10% up to 20%); Percent Gcase Activation, 1 μM Test Compound (1 μM test compound): +++ (Gcase activation greater than 60%) |
| Cc1cc(-c2ccns2)nc2c(C(=O)NC(C3CC3)C(F)(F)F)cnn12 (centres unmarked) [III-411] |  |  | Percent Gcase Activation, 0.1 μM Test Compound (0.1 μM test compound): *** (greater than 20% Gcase activation); Percent Gcase Activation, 1 μM Test Compound (1 μM test compound): +++ (Gcase activation greater than 60%) |
| Cc1ccc(-c2cc(C)n3ncc(C(=O)NC(C4CC4)C(F)(F)F)c3n2)cn1 (centres unmarked) [III-278] | *** (greater than 20% Gcase activation) | +++ (Gcase activation greater than 60%) |  |
| CCC(NC(=O)c1cnn2c(C)cc(-c3cccnc3)nc12)C(F)(F)F (centres unmarked) [III-42] |  |  | Percent Gcase Activation, 0.1 μM Test Compound (0.1 μM test compound, Table 3A): * (less than 10% Gcase activation); Percent Gcase Activation, 1 μM Test Compound (1 μM test compound, Table 3A): +++ (Gcase activation greater than 60%) |
| Cc1cc(N2CCCN(C(C)C)C2=O)nc2c(C(=O)NC(C3CC3)C(F)(F)F)cnn12 (centres unmarked) [III-257] | ** (Gcase activation in the range of 10% up to 20%) | ++ (Gcase activation in the range of 30% up to 60%) |  |
| Cc1cc(-c2ccon2)nc2c(C(=O)NC(C3CC3)C(F)(F)F)cnn12 (centres unmarked) [III-239] | ** (Gcase activation in the range of 10% up to 20%) | +++ (Gcase activation greater than 60%) |  |
| COc1cc(F)ccc1-c1cc(C)n2ncc(C(=O)NC(C3CC3)C(F)(F)F)c2n1 (centres unmarked) [III-149] | *** (greater than 20% Gcase activation) | +++ (Gcase activation greater than 60%) |  |
| COc1cccc(-c2cc(C)n3ncc(C(=O)N[C@@H](C)C(F)(F)F)c3n2)c1 [III-91] | *** (greater than 20% Gcase activation) | +++ (Gcase activation greater than 60%) |  |
| Cc1ccc(-c2cc(C)n3ncc(C(=O)N[C@@H](C4CC4)C(F)(F)F)c3n2)cn1 [III-280] | *** (greater than 20% Gcase activation) | +++ (Gcase activation greater than 60%) |  |
